Results: ChEMBL document CHEMBL3885861, “Open TG-GATES”

Species on record: Rattus norvegicus
Experiment: Open TG-GATES - Regimen: Daily Repeat
Format: toxicity, organism-based, Sprague-Dawley
Set-up: regimen Daily Repeat, gender Male, age 6 weeks
Conditions: in vivo, po, 100 mg/kg, route gavage, dose level High; for APTT / Bas / Eos / Fbg / Hb / Ht / Lym / MCH / MCHC / MCV / Mono / Neu / PT / Plat / RBC / Ret / WBC: tissue Blood; for KIDNEY_L / KIDNEY_R / KIDNEY_TOTAL: tissue Kidney; for LIVER: tissue Liver; for A/G / ALP / ALT / AST / BUN / CRE / Ca / Cl / DBIL / GLC / IP / K / LDH / Na / PL / RALB / TBIL / TC / TG / TP / gamma-GTP: tissue Plasma

CCC1(c2ccccc2)C(=O)NC(=O)NC1=O [PHENOBARBITAL]
TERMINAL_BW (72 h, time 3 day): 223.9 g
APTT (72 h, time 3 day): 15.7 s
Bas (72 h, time 3 day): 0%
Eos (72 h, time 3 day): 0.4%
Fbg (72 h, time 3 day): 214.6 mg/dL
Hb (72 h, time 3 day): 13.6 g/dL
Ht (72 h, time 3 day): 40.7%
Lym (72 h, time 3 day): 82.8%
MCH (72 h, time 3 day): 21.9 pg
MCHC (72 h, time 3 day): 33.3%
MCV (72 h, time 3 day): 65.9 fL
Mono (72 h, time 3 day): 6.8%
Neu (72 h, time 3 day): 10%
PT (72 h, time 3 day): 11.4 s
Plat (72 h, time 3 day): 115.9 x10_4/uL
RBC (72 h, time 3 day): 617.6 x10_4/ul
Ret (72 h, time 3 day): 6.6%
WBC (72 h, time 3 day): 159.6 x10_2/uL
KIDNEY_L (72 h, time 3 day): 1 g
KIDNEY_R (72 h, time 3 day): 1 g
KIDNEY_TOTAL (72 h, time 3 day): 2 g
LIVER (72 h, time 3 day): 14.1 g
A/G (72 h, time 3 day): 1.6
ALP (72 h, time 3 day): 945.6 IU/L
ALT (72 h, time 3 day): 37 IU/L
AST (72 h, time 3 day): 60.6 IU/L
BUN (72 h, time 3 day): 14.2 mg/dL
CRE (72 h, time 3 day): 0.5 mg/dL
Ca (72 h, time 3 day): 10.8 mg/dL
Cl (72 h, time 3 day): 104.6 meq/L
DBIL (72 h, time 3 day): 0.028 mg/dL
GLC (72 h, time 3 day): 188.6 mg/dL
IP (72 h, time 3 day): 8 mg/dL
K (72 h, time 3 day): 5.1 meq/L
LDH (72 h, time 3 day): 112.4 IU/L
Na (72 h, time 3 day): 137.4 meq/L
PL (72 h, time 3 day): 157.2 mg/dL
RALB (72 h, time 3 day): 3.6 g/dL
TBIL (72 h, time 3 day): 0.4 mg/dL
TC (72 h, time 3 day): 82.2 mg/dL
TG (72 h, time 3 day): 118.6 mg/dL
TP (72 h, time 3 day): 5.9 g/dL
gamma-GTP (72 h, time 3 day): 1 IU/L
TERMINAL_BW ([…], time 7 day): 257.9 g
TERMINAL_BW ([…], time 14 day): 304.3 g
TERMINAL_BW ([…], time 28 day): 378.9 g
APTT ([…], time 7 day): 16.7 s
Bas ([…], time 7 day): 0%
Eos ([…], time 7 day): 1%
Fbg ([…], time 7 day): 241.6 mg/dL
Hb ([…], time 7 day): 13.8 g/dL
Ht ([…], time 7 day): 41.4%
Lym ([…], time 7 day): 78.8%
MCH ([…], time 7 day): 22 pg
MCHC ([…], time 7 day): 33.4%
MCV ([…], time 7 day): 66 fL
Mono ([…], time 7 day): 7.4%
Neu ([…], time 7 day): 13%
PT ([…], time 7 day): 11.5 s
Plat ([…], time 7 day): 116.8 x10_4/uL
RBC ([…], time 7 day): 629.6 x10_4/ul
Ret ([…], time 7 day): 7.5%
WBC ([…], time 7 day): 104.3 x10_2/uL
APTT ([…], time 14 day): 17.5 s
Bas ([…], time 14 day): 0%
Eos ([…], time 14 day): 0%
Fbg ([…], time 14 day): 228.6 mg/dL
Hb ([…], time 14 day): 14.7 g/dL
Ht ([…], time 14 day): 43.9%
Lym ([…], time 14 day): 86%
MCH ([…], time 14 day): 20.7 pg
MCHC ([…], time 14 day): 33.4%
MCV ([…], time 14 day): 61.9 fL
Mono ([…], time 14 day): 4.2%
Neu ([…], time 14 day): 9.4%
PT ([…], time 14 day): 11.5 s
Plat ([…], time 14 day): 115.5 x10_4/uL
RBC ([…], time 14 day): 709.4 x10_4/ul
Ret ([…], time 14 day): 5%
WBC ([…], time 14 day): 166 x10_2/uL
APTT ([…], time 28 day): 19.1 s
Bas ([…], time 28 day): 0%
Eos ([…], time 28 day): 0.4%
Fbg ([…], time 28 day): 226.8 mg/dL
Hb ([…], time 28 day): 15.3 g/dL
Ht ([…], time 28 day): 46.1%
Lym ([…], time 28 day): 87.8%
MCH ([…], time 28 day): 19.8 pg
MCHC ([…], time 28 day): 33.2%
MCV ([…], time 28 day): 59.4 fL
Mono ([…], time 28 day): 2.2%
Neu ([…], time 28 day): 9.6%
PT ([…], time 28 day): 12.4 s
Plat ([…], time 28 day): 105.1 x10_4/uL
RBC ([…], time 28 day): 775.6 x10_4/ul
Ret ([…], time 28 day): 3%
WBC ([…], time 28 day): 170.6 x10_2/uL
KIDNEY_L ([…], time 7 day): 1.1 g
KIDNEY_R ([…], time 7 day): 1.1 g
KIDNEY_TOTAL ([…], time 7 day): 2.1 g
KIDNEY_L ([…], time 14 day): 1.2 g
KIDNEY_R ([…], time 14 day): 1.2 g
KIDNEY_TOTAL ([…], time 14 day): 2.4 g
KIDNEY_L ([…], time 28 day): 1.4 g
KIDNEY_R ([…], time 28 day): 1.4 g
KIDNEY_TOTAL ([…], time 28 day): 2.8 g
LIVER ([…], time 7 day): 17.1 g
LIVER ([…], time 14 day): 18.1 g
LIVER ([…], time 28 day): 20.8 g
A/G ([…], time 7 day): 1.5
ALP ([…], time 7 day): 717.2 IU/L
ALT ([…], time 7 day): 32.6 IU/L
AST ([…], time 7 day): 58.8 IU/L
BUN ([…], time 7 day): 18 mg/dL
CRE ([…], time 7 day): 0.6 mg/dL
Ca ([…], time 7 day): 11 mg/dL
Cl ([…], time 7 day): 106 meq/L
DBIL ([…], time 7 day): 0.054 mg/dL
GLC ([…], time 7 day): 199 mg/dL
IP ([…], time 7 day): 8.1 mg/dL
K ([…], time 7 day): 4.6 meq/L
LDH ([…], time 7 day): 145 IU/L
Na ([…], time 7 day): 140.4 meq/L
PL ([…], time 7 day): 160.2 mg/dL
RALB ([…], time 7 day): 3.8 g/dL
TBIL ([…], time 7 day): 0.4 mg/dL
TC ([…], time 7 day): 88.4 mg/dL
TG ([…], time 7 day): 71.6 mg/dL
TP ([…], time 7 day): 6.2 g/dL
gamma-GTP ([…], time 7 day): 1.6 IU/L
A/G ([…], time 14 day): 1.4
ALP ([…], time 14 day): 757.4 IU/L
ALT ([…], time 14 day): 32 IU/L
AST ([…], time 14 day): 65.4 IU/L
BUN ([…], time 14 day): 19.4 mg/dL
CRE ([…], time 14 day): 0.6 mg/dL
Ca ([…], time 14 day): 10.7 mg/dL
Cl ([…], time 14 day): 107.2 meq/L
DBIL ([…], time 14 day): 0.004 mg/dL
GLC ([…], time 14 day): 180 mg/dL
IP ([…], time 14 day): 8.4 mg/dL
K ([…], time 14 day): 4.2 meq/L
LDH ([…], time 14 day): 151.2 IU/L
Na ([…], time 14 day): 141.4 meq/L
PL ([…], time 14 day): 156 mg/dL
RALB ([…], time 14 day): 3.9 g/dL
TBIL ([…], time 14 day): 0.4 mg/dL
TC ([…], time 14 day): 91.4 mg/dL
TG ([…], time 14 day): 60.4 mg/dL
TP ([…], time 14 day): 6.5 g/dL
gamma-GTP ([…], time 14 day): 1.4 IU/L
A/G ([…], time 28 day): 1.4
ALP ([…], time 28 day): 536 IU/L
ALT ([…], time 28 day): 34.6 IU/L
AST ([…], time 28 day): 64.6 IU/L
BUN ([…], time 28 day): 21.2 mg/dL
CRE ([…], time 28 day): 0.4 mg/dL
Ca ([…], time 28 day): 10.7 mg/dL
Cl ([…], time 28 day): 106.2 meq/L
DBIL ([…], time 28 day): 0.014 mg/dL
GLC ([…], time 28 day): 180 mg/dL
IP ([…], time 28 day): 7.7 mg/dL
K ([…], time 28 day): 4.9 meq/L
LDH ([…], time 28 day): 138.8 IU/L
Na ([…], time 28 day): 141.6 meq/L
PL ([…], time 28 day): 144.8 mg/dL
RALB ([…], time 28 day): 4 g/dL
TBIL ([…], time 28 day): 0.4 mg/dL
TC ([…], time 28 day): 79.6 mg/dL
TG ([…], time 28 day): 76.2 mg/dL
TP ([…], time 28 day): 6.8 g/dL
gamma-GTP ([…], time 28 day): 2 IU/L
